Measurements: patent US11246936B2, “Compositions and methods using rebaudioside X to provide sweetness enhancement” (The Coca-Cola Company, priority 2013, dated 2022)

How the values were obtained:
panelists [1] = test: Taste evaluation of sweetness against sucrose reference beverages (water and citric acid buffer); assay type: in vivo, human
Description: Solutions were made by dissolving all ingredients in treated water. For citric acid buffer, citric acid and potassium citrate were added in a sufficient amount to bring the pH to 3.2. Finished products were filled in 300 ml-glass bottles and stored in the refrigerator. The Rebaudioside X used was 95% pure and obtained from Pure Circle. Beverages were kept in the refrigerator overnight and tasted cold the following day. Two panelists evaluated the beverages. Bottles were removed from the refrigerator and about 50 ml of the beverage was poured in 4 oz-plastic cups. Taste test were conducted in two sessions for each type of solution: water and citric acid buffer. In the first session, the sweetness level of the beverages containing 20 ppm and 30 ppm rebaudioside X were determined against the 0.5%, 1%, and 1.5% sucrose beverages. In the second session, the sweetness level of the beverages containing 7% sucrose and either 20 ppm or 30 ppm rebaudioside X were determined against the 7%, 8%, 9%, and 10% sucrose beverages. Panelists were given mineral water for rinsing before tasting and between tasting different samples. Unsalted crackers were also given to panelists to eat followed by rinsing their mouth with mineral water before tasting the next sample.

human sense of taste = test: Sweetness recognition threshold; assay type: in vivo
Description: The term “sweetness recognition threshold,” as generally used herein, is the lowest known concentration of a sweet compound that is perceivable by the human sense of taste. As such, rebaudioside X enhances or potentiates the sweet taste of sweeteners without providing any noticeable sweet taste by itself when present below its sweetness recognition threshold concentration. However, rebaudioside X may provide a detectable sweet taste at concentrations above its sweetness recognition threshold. The sweetness recognition threshold of rebaudioside X is about 20 to about 30 ppm.
The term “sucrose equivalence,” as used herein, refers to the sweetness of a composition containing at least one […] sweetener against a sucrose reference. Typically, taste panelists are trained to detect sweetness of reference sucrose solutions containing between 1-15% sucrose (w/v). Other non-sucrose sweeteners are then tasted at a series of dilutions to determine the concentration of the non-sucrose, i.e. rebaudioside X, sweetener that is as sweet (i.e. isosweet) to a given percent sucrose reference.

panelists [2] = test: Taste evaluation of lemon-lime carbonated soft drinks against HFCS-55 controls; assay type: in vivo, human
Description: Lemon-lime carbonated soft drinks (CSD) were made by dissolving all ingredients in an amount of water sufficient to make a syrup from which finished beverages were made by adding 5.5 parts carbonated water to 1 part syrup (beverage carbonation target of 3.7 volumes of CO2). Products were prepared with the ingredients provided in Table 8: The beverages were aged for seven days at room temperature and then cooled at 4° C. before tasting. Four panelists evaluated the beverages. Bottles were removed from the refrigerator and about 20 ml of beverage poured in 2 oz-plastic cups. Mineral water was given for palate rinsing before tasting and between tasting different samples.

SMILES: C=C1C[C@@]23CC[C@H]4[C@@](C)(CCC[C@@]4(C)C(=O)O[C@@H]4O[C@H](CO)[C@@H](O)[C@H](O[C@@H]5O[C@H](CO)[C@@H](O)[C@H](O)[C@H]5O)[C@H]4O[C@@H]4O[C@H](CO)[C@@H](O)[C@H](O)[C@H]4O)[C@@H]2CC[C@]1(O[C@@H]1O[C@H](CO)[C@@H](O)[C@H](O[C@@H]2O[C@H](CO)[C@@H](O)[C@H](O)[C@H]2O)[C@H]1O[C@@H]1O[C@H](CO)[C@@H](O)[C@H](O)[C@H]1O)C3 [rebaudioside X, 13-[(2-O-β-D-glucopyranosyl-3-O-β-D-glucopyranosyl-β-D-glucopyranosyl)oxy] ent kaur-16-en-19-oic acid-[(2-O-β-D-glucopyranosyl-3-O-β-D-glucopyranosyl-β-D-glucopyranosyl) ester]]
- overall sweetness similar to sucrose beverage (panelists [1]; 7% sucrose and 20 ppm rebaudioside X in water or citric acid buffer, between the 9% and 10% sucrose beverage (average)): ~9.5 % sucrose
- overall sweetness similar to sucrose beverage (panelists [1]; 7% sucrose and 30 ppm rebaudioside X in either water or citric acid buffer): ~10 % sucrose
- sweetness enhancement (panelists [1]; 20 and 30 ppm rebaudioside X added to a beverage containing 7% sucrose): about 1.5%
- increase in isosweetness provided by rebaudioside X (panelists [1]; 20 ppm rebaudioside X in 7.0% (w/v) sucrose beverage): 2.5 % (w/v)
- overall sweetness similar to sucrose beverage (panelists [1]; 20 ppm rebaudioside X in either water or citric acid buffer (pH 3.2), two panelists, tasted cold): ~1 % sucrose
- overall sweetness similar to sucrose beverage (panelists [1]; 30 ppm rebaudioside X in either water or citric acid buffer (pH 3.2), two panelists, tasted cold): ~1.5 % sucrose
- isosweet sucrose solution (panelists [1]; beverage containing 7.0% (w/v) sucrose and 20 ppm rebaudioside X): 9.5 % (w/v)
- isosweet sucrose solution (panelists [1]; solution containing 20 ppm rebaudioside X, no other sweetener): 1.0 % (w/v)
- sucrose equivalence provided at the sweetness recognition threshold (human sense of taste; at about 20-30 ppm rebaudioside X): 1.0-1.5%
- sweetness recognition threshold (human sense of taste; lowest concentration perceivable by the human sense of taste): 20-30 ppm
- overall sweetness similar to HFCS-55 beverage (panelists [2]; 8% HFCS-55 and 30 ppm rebaudioside X in lemon lime CSD, four panelists, 10% HFCS-55 same sweetness as 10% sucrose): about 10 % HFCS-55
- sweetness enhancement (panelists [2]; 30 ppm rebaudioside X added to a beverage containing 8% HFCS-55 (same sweetness as 8% sucrose)): about 2.0%
